Patent US20240043794A1, “Chemically Defined Serum Albumin Substitutes” (Life Technologies Corporation, priority 2020, published 2024)
Read-outs that look alike come from different tables or passages of the source.

Tests used:
rat neurons [1] = assay: Calcein AM viability assay of rat neurons in neurobasal medium with ITS
Experimental: (§5) The effect of different BSAs on cell viability was tested using the eBioscience™ Calcein AM Viability Dye, according to manufacturer's protocol. Briefly, rat neurons were cultured in neurobasal medium supplemented with ITS and BSA1 or BSA2 at a concentration of 0.25%.
(§6) The ability of antioxidant to reverse iron-induced toxicity was then investigated. Tocopherol at a concentration of 2 μg/mL in neurobasal medium supplemented with lean supplement (Insulin-Transferrin-Selenium, ITS) was added to cultured rat neuron cells and either BSA1 or BSA2.

[2] = tested on: FoxG1 expression in pluripotent stem cells (PSC); assay: FoxG1 expression and specification of PSC differentiation, ICC and qPCR; type: cell-based, human
Experimental: Peptide C (SEQ ID NO:1) was assessed for its effect on cell differentiation. […] Without wishing to be bound by theory, this was likely due to variations in cholesterol levels within the albumin samples. To assess the effect of the tetrapeptide […] on cell differentiation, pluripotent stem cells (PSC) were cultured in the presence either BSA1, BSA2, or peptide C. […] Results are shown in FIGS. 17A and 17B, respectively. […] Upon differentiation, cells will develop their positional identity such as forebrain, midbrain, hindbrain etc. Specification is the step where PSC develop this positional identification.

[3] = tested on: human neural stem cells (NSC); assay: B-27 supplemented cell culture performance of albumins, human NSC; type: cell-based; details: B-27 supplemented culture
Experimental: (§1) Commercially available albumins were analyzed for performance in cell cultures. Bovine serum albumin (BSA), human serum albumin (HSA) and recombinant human serum albumin (Rec HSA) from various sources (including different manufacturers, bovine, human, recombinant HSA (made in yeast or rice), and Freestyle CHO MAX media (Thermo Fisher cat. no. K900020) were analyzed. B-27 (Thermo Fisher Scientific cat. no. 17504044) supplemented cell cultures for mouse pluripotent stem cells (PSC), primary rat neurons, or human neural stem cells (NSC) were prepared (approx. 0.5 to 1× final concentration of B27 in medium). The cultures varied only in the source or type of albumin present. Results shown in FIG. 1A illustrate that significant performance differences existed among the albumins tested, and further that performance is dependent on cell type. In fact, two cultures comprising the same cell line and differing only in addition of BSA1 or BSA2 differed in performance.

[4] = tested on: mouse pluripotent stem cells (PSC); assay: B-27 supplemented cell culture performance of albumins, mouse PSC; type: cell-based; details: B-27 supplemented culture
Experimental: as §1

neuronal cell = assay: Interactions between B27 supplement components and albumins, neuronal cell viability; type: cell-based; details: B27-supplemented media
Experimental: Next, interactions between different components of B27 supplement and various albumins were analyzed (FIGS. 1B-1J). The effect of these molecular interactions were also assessed for their effect on neuronal cell stability in cell culture.

rat neurons [5] = assay: Rat neuron viability with low or high GSH or lipoic acid; type: cell-based; details: low or high concentration, compared to control culture
Experimental: Applicants then tested chemically defined components that may replace the catalase and thiol antioxidant activity of albumins. GSH and lipoic acid were assessed for their ability to provide catalase and thiol antioxidant activity by culturing rat neurons in the presence of either low or high concentrations of GSH or lipoic acid and subsequently assaying cell viability.

rat neurons [6] = tested on: rat neurons
Experimental: as §5, §6

rat neuron cells [7] = assay: Rat neuron viability with synthetic peptides replacing albumin; type: cell-based; details: for viability of cultured rat neuron cells, HSA-like function: FIG. 11; for rat neuron cell viability, HSA supportive properties: culture medium lacking albumin, FIG. 10; for rat neuron cell growth: neurobasal medium with ITS, day 5, Calcein AM, FIG. 20
Description: Albumins such as HSA have a metal binding site, which functions as a chelator of transition metals that are toxic to neuron cells. Applicants therefore investigated whether HSA may be replaced by a synthetic peptide, which mimics the high affinity binding of the functional metal binding site. […] Peptide B, which is the Peptide C sequence extended by 5 additional flanking HSA residues on either end, was similarly non-functional. […] Without wishing to be bound by scientific theory, the additional amino acid residues may block or otherwise inhibit the chelating functions of the Peptide C sequence.
The importance of Peptide C ionic property and sequence specificity in conferring enhancing properties to cell cultures was investigated. The tetrapeptide DAHK (SEQ ID NO:1) is a sequence comprising negatively, neutral, and two positively charged amino acids (−X++). […] To assess if amino acid sequence or charge specificity confers beneficial properties, a scrambled Peptide C sequence was prepared and tested. The scrambled peptide comprising the sequence AKDH (SEQ ID NO: 3; scramble) and charge of X+−+ was tested, and results are shown in FIG. 11.
To determine the impact of peptide length, Applicants assessed a variety of peptides that varied both in length and in the identity of the amino acid residue(s) that flank the Peptide C DAHK sequence (SEQ ID NO:1). Further, to assess the effect of ionic property, peptides were tested that included amino acid substitutions to the peptide of SEQ ID NO:1. The amino acid substitutions were designed to retain ionic and hydrophobic properties of SEQ ID NO:1, namely by preserving the order of negatively charged, hydrophobic uncharged, and positively charged residues. […] The cultures were further supplemented with rHSA, or a variation of the Peptide C derived synthetic peptide.
In a first set of cell cultures, the synthetic peptides included the DAHK (SEQ ID NO:1) amino acid sequence or peptides with additional residues on one or both the N-terminus and C-terminus of SEQ ID NO:1. On day 5 of culturing, the cells were labeled with Calcein AM and counted. […] That is, the length of adjacent residues on the N-terminus and C-terminus of the peptide is not critical for maintaining the function of peptide C unless the conformation is impacted as so not to maintain its beneficial properties in cell culture.

[8] = Superoxide Dismutase (SOD) Colorimetric Activity Kit; type: biochemical; details: range of concentrations
Experimental: Applicants first analyzed the superoxide dismutase (SOD) activity of various albumins, utilizing the Superoxide Dismutase (SOD) Colorimetric Activity Kit (Thermo Fisher Scientific, Waltham, MA), according to the manufacturer's protocol. Briefly, SOD activity was assessed utilizing an assay comprising the reaction of a substrate and Xanthine Oxidase to form superoxide (O^−2), the levels of which are decreased by SOD activity.
Next, the ability of chemically defined components to replace SOD antioxidant activity was tested. Mito-Tempo, which scavenges O2•^− in mitochondria, was compared with HSA for its ability to reduce superoxide, as assessed using the Superoxide Dismutase (SOD) Colorimetric Activity Kit (Thermo Fisher Scientific, Waltham, MA), according to the manufacturer's protocol.

[9] = tested on: Mouse embryonic stem cells (mESC); assay: mESC proliferation, PrestoBlue assay; type: cell-based; details: compared to BSA1
Experimental: (§2) BSA1 and BSA2 were further analyzed for their effect on stem cells. Mouse embryonic stem cells (mESC) or human neural stem cells (hNSC) were grown in cell culture media containing BSA1 or BSA2, and proliferation was measured. Proliferation of mESCs was measured using PrestoBlue assay (Thermo Fisher Scientific) according to the manufacturer's protocol. Proliferation of hNSCs was measured with VI-CELL™ XR cell counting assay (Beckman Coulter) according to the manufacturer's protocol.

[10] = tested on: human neural stem cells (hNSC); assay: hNSC proliferation, VI-CELL XR cell counting assay; type: cell-based; details: compared to BSA1
Experimental: as §2

[11] = tested on: Rat cortical neuron (RCN) cells; assay: Rat cortical neuron (RCN) survival in neurobasal medium with ITS; type: cell-based; details: for RCN cell survival: increasing concentrations, assessed on day 6
Description: (§3) Trolox (6-hydroxy-2,5,7,8-tetramethylchroman-2-carboxylic acid), a water-soluble derivative of Vitamin E, was investigated as a replacement for albumin. […] Without any anti-oxidant, aged neurons started to degenerate at about day 4, leaving few viable neurons left on the plate.

[12] = Lot-to-lot consistency and shelf life of the peptide; type: physicochemical; details: multiple lots, in solution
rat neuron cells [13] = details: 50 μM copper, neurobasal medium with ITS
[14] = tested on: mouse embryonic stem cell (mESC); assay: Copper-stressed mESC proliferation, PRESTOBLUE viability; type: cell-based; details: 50 μM copper, 100 μg/mL or 50 μg/mL peptide
Experimental: (§4) The effect of metals and synthetic peptides were further assessed in mouse embryonic stem cell (mESC) and HEK293 cell proliferation cultures. mESC and HEK293 cultures were spiked with 50 μM copper, thereby creating a toxic culture environment and inhibiting cell proliferation. […] PRESTOBLUE™ cell viability reagent (Thermo Fisher Scientific, Waltham, MA), was used to assess viability according to the manufacturer's protocol.

HEK293 cells = assay: Copper-stressed HEK293 proliferation, PRESTOBLUE viability; type: cell-based; details: 50 μM copper, 100 μg/mL or 50 μg/mL peptide
Experimental: as §4

Water solubility = type: physicochemical; details: compared to Vitamin E
Description: as §3

BSA1: BSA source with higher iron content; fatty acid free
rat neuron viability (rat neurons [1]; albumin at 0.25%, compared to BSA2): reduced viability of rat neurons | specification of PSC differentiation [2]: specification of PSC differentiation was impacted | cell culture performance [3]: supportive properties | cell culture performance [4]: supportive properties

CC(=O)Oc1c(C)c(C)c2c(c1C)CCC(C)(CCC[C@H](C)CCC[C@H](C)CCCC(C)C)O2 (stereo partly drawn) [X2, Tocopherol acetate]
effect on neuronal cell viability of B27 component interacting with BSA and HSA (neuronal cell): positive effects on neuronal cell viability

N[C@@H](CCC(=O)N[C@@H](CS)C(=O)NCC(=O)O)C(=O)O [GSH, glutathione]
rat neuron cell viability (rat neurons [5]): neither concentration of GSH tested showed significant effects on cell viability

[Fe] [iron]
rat neuron viability (rat neurons [6]): rat neuron viability was decreased

DTHK [counterpart BSA peptide]
viability of cultured rat neuron cells, HSA-like function (rat neuron cells [7]): functional in improving viability of cultured rat neuron cells

GVFRRDAHKSEVAH [Peptide B]
rat neuron cell viability, HSA supportive properties (rat neuron cells [7]): non-functional

CC1(C)CC(NC(=O)C[P+](c2ccccc2)(c2ccccc2)c2ccccc2)CC(C)(C)N1[O] [Mito-Tempo, (2-(2,2,6,6-tetramethylpiperidin-1-oxyl-4-ylamino)-2-oxoethyl)triphenylphosphonium chloride]
superoxide levels [8]: decrease superoxide levels in a dose-dependent manner

BSA2: BSA from a second source; fatty acid rich
specification of PSC differentiation [2]: specification of PSC differentiation was impacted | proliferation of mESC [9]: reduces proliferation | cell culture performance [3]: caused toxicity | proliferation of hNSC [10]: reduces proliferation | cell culture performance [4]: caused toxicity

FRRDAHKSEVA [SEQ ID NO:17]
rat neuron cell growth (rat neuron cells [7]): convey beneficial properties to cell culture

RRDAHKSE [SEQ ID NO:15]
rat neuron cell growth (rat neuron cells [7]): convey beneficial properties to cell culture

O=C(O)CCCC[C@@H]1CCSS1 (racemic) [Lipoic acid, lipoic acid]
rat neuron cell viability (rat neurons [5]): enhanced rat neuron cell viability

RRDAHK [SEQ ID NO:12]
rat neuron cell growth (rat neuron cells [7]): convey beneficial properties to cell culture

Vitamin E
RCN cell survival [11]: reversed cell death

Tocopherol [reference compound]
reversal of decreased viability due to BSA1 or iron (rat neurons [1]; 2 μg/mL): reversed decreased viability of the rat neuron cells | effect on neuronal cell viability of B27 component interacting with BSA and HSA (neuronal cell): positive effects on neuronal cell viability

RRDAHKS [SEQ ID NO:13]
rat neuron cell growth (rat neuron cells [7]): convey beneficial properties to cell culture

FRRDAHKSEV [SEQ ID NO:16]
rat neuron cell growth (rat neuron cells [7]): convey beneficial properties to cell culture

SAYSRGVFRRDAHKSEVAHRFKD [peptide A]
rat neuron cell viability, HSA supportive properties (rat neuron cells [7]): did not retain HSA supportive properties

DAHK [Peptide C]
lot-to-lot consistency and shelf life [12]: lot-to-lot consistency and good shelf life, even in solution | prevention of copper induced toxicity (rat neuron cells [13]): prevented toxicity even in the presence of copper | specification of PSC differentiation [2]: no significant impact | viability of cultured rat neuron cells, HSA-like function (rat neuron cells [7]): functional in improving viability of cultured rat neuron cells | rat neuron cell viability, HSA supportive properties (rat neuron cells [7]): enhanced rat neuron cell viability | rescue of copper stressed cells [14]: rescued the stressed cells in a concentration dependent manner | rescue of copper stressed cells (HEK293 cells): to a lesser extent

Cc1c(C)c2c(c(C)c1O)CCC(C)(C(=O)O)O2 (stereo not drawn) [Trolox, 6-hydroxy-2,5,7,8-tetramethylchroman-2-carboxylic acid]
water solubility (Water solubility): higher water solubility | working range ([11]; compared to Vitamin E): wider working range than Vitamin E | RCN cell survival [11]: reversed cell death

AKDH [reference compound]
viability of cultured rat neuron cells, HSA-like function (rat neuron cells [7]): the HSA-like function was abolished
